According to ChEMBL document CHEMBL4043305, “Structure-Activity Relationship Study of Cyclic Pentapeptide Ligands for Atypical Chemokine Receptor 3 (ACKR3)” (J Med Chem, 2018):
pEC50, pIC50: −log10 of the molar value. The source made the active and inactive calls. No cut-off for these calls is given here.

How the values were obtained:
Format in all cases: cell-based
[1] = molecular target: T1, Atypical chemokine receptor 3 (Homo sapiens, UniProt P25106); test: Displacement of [125I]SDF-1alpha from ACKR3 (unknown origin) expressed in CHO cells at 30 uM after 1 hr by scintillation counting method
T1 sequence (P25106 whole entry): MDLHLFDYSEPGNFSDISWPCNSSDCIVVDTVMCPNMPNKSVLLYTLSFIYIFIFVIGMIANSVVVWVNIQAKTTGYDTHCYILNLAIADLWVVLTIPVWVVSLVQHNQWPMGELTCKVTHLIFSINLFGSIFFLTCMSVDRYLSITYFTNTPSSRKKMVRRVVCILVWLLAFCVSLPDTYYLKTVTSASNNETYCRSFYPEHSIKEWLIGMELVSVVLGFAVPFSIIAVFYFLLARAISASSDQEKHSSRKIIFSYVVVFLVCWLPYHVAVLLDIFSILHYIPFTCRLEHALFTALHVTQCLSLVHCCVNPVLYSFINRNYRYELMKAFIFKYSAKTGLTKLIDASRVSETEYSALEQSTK

[2] = molecular target: C-X-C chemokine receptor type 4 (Homo sapiens, UniProt P61073); test: Displacement of [125I]SDF-1alpha from CXCR4 (unknown origin) expressed in HEK293 cells after 1 hr by scintillation counting method
Chain of C-X-C chemokine receptor type 4 (P61073 whole entry): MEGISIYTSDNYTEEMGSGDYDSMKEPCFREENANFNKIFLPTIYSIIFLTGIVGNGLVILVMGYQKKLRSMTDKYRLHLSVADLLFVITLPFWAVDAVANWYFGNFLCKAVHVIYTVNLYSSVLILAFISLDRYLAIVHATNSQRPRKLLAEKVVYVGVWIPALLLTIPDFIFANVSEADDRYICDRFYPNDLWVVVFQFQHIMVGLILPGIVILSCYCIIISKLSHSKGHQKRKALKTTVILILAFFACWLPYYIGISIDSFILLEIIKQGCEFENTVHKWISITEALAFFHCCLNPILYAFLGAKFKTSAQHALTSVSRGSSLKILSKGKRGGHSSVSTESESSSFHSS

[3] = molecular target: Atypical chemokine receptor 3 (Homo sapiens, UniProt P25106, D179N); test: Activation of YFP-tagged ACKR3 D179N mutant (unknown origin) expressed in HEK293E cells assessed as induction of Rluc-tagged beta-arrestin-2 recruitment after 30 mins by BRET assay; conditions: for pEC50: read-out: EC50; for EC50: read-out: pEC50 (converted)
Chain of Atypical chemokine receptor 3 (Homo sapiens, UniProt P25106, D179N) (P25106 whole entry D179N): as the sequence (P25106 whole entry) above, with D179N counted along it

[4] = molecular target: T1, Atypical chemokine receptor 3; test: Displacement of [125I]SDF-1alpha from ACKR3 (unknown origin) expressed in CHO cells after 1 hr by scintillation counting method
[5] = molecular target: T1, Atypical chemokine receptor 3; test: Activation of YFP-tagged ACKR3 (unknown origin) expressed in HEK293E cells assessed as induction of Rluc-tagged beta-arrestin-2 recruitment after 30 mins by BRET assay
[6] = molecular target: Atypical chemokine receptor 3 (Homo sapiens, UniProt P25106, S198R); test: Activation of YFP-tagged ACKR3 S198R mutant (unknown origin) expressed in HEK293E cells assessed as induction of Rluc-tagged beta-arrestin-2 recruitment after 30 mins by BRET assay; conditions: for pEC50: read-out: EC50
Chain of Atypical chemokine receptor 3 (Homo sapiens, UniProt P25106, S198R) (P25106 whole entry S198R): as the sequence (P25106 whole entry) above, with S198R counted along it

[7] = molecular target: Atypical chemokine receptor 3 (Homo sapiens, UniProt P25106, D275N); test: Activation of YFP-tagged ACKR3 D275N mutant (unknown origin) expressed in HEK293E cells assessed as induction of Rluc-tagged beta-arrestin-2 recruitment after 30 mins by BRET assay; conditions: for pEC50: read-out: EC50
Chain of Atypical chemokine receptor 3 (Homo sapiens, UniProt P25106, D275N) (P25106 whole entry D275N): as the sequence (P25106 whole entry) above, with D275N counted along it

| Structure (SMILES) | pIC50 [2] | pIC50 [4] | other results |
| --- | --- | --- | --- |
| CN1C(=O)[C@H](CCCNC(=N)N)NC(=O)[C@@H](Cc2ccc(Cl)cc2)NC(=O)[C@@H]2CCCN2C(=O)[C@H](Cc2ccc3ccccc3c2)NC(=O)[C@@H]1CCCNC(N)=O | < 4.52 | 6.10 | – |
| CN1C(=O)[C@H](CCCNC(=N)N)NC(=O)[C@@H](Cc2ccc(O)cc2)NC(=O)[C@@H]2CCCN2C(=O)[C@H](Cc2ccc3ccccc3c2)NC(=O)[C@@H]1CCCN | < 4.52 | 5.89 | – |
| CN1C(=O)[C@H](CCC(=O)O)NC(=O)[C@@H](Cc2ccc(O)cc2)NC(=O)[C@@H]2CCCN2C(=O)[C@H](Cc2ccc3ccccc3c2)NC(=O)[C@@H]1CCCNC(=N)N | < 4.52 | – | inhibition [1]: inactive |
| CN1C(=O)[C@H](CCCNC(=N)N)NC(=O)[C@@H](Cc2ccc(O)cc2)NC(=O)[C@@H]2Cc3ccccc3CN2C(=O)[C@H](Cc2ccc3ccccc3c2)NC(=O)[C@@H]1CCCNC(N)=O | < 4.52 | 5.38 | – |
| CC(C)[C@H]1C(=O)N[C@H](Cc2ccc(O)cc2)C(=O)N[C@@H](CCCNC(=N)N)C(=O)N(C)[C@@H](CCCNC(N)=O)C(=O)N[C@@H](Cc2ccc3ccccc3c2)C(=O)N1C | < 4.52 | 5.31 | – |
| CN1C(=O)[C@@H]2CCCN2C(=O)[C@@H](Cc2ccc(O)cc2)NC(=O)[C@@H]2CCCN2C(=O)[C@H](Cc2ccc3ccccc3c2)NC(=O)[C@@H]1CCCNC(=N)N | < 4.52 | 4.62 to 5.70 | – |
| CN1C(=O)[C@H](Cc2cnc[nH]2)NC(=O)[C@@H](Cc2ccc(O)cc2)NC(=O)[C@@H]2CCCN2C(=O)[C@H](Cc2ccc3ccccc3c2)NC(=O)[C@@H]1CCCNC(=N)N | < 4.52 | 4.62 to 5.70 | – |

Now from value to compound, other results behind:

| pIC50 [2] | pIC50 [4] | Structure (SMILES) | other results |
| --- | --- | --- | --- |
| < 4.52 | – | CN1C(=O)[C@H](CC(=O)O)NC(=O)[C@@H](Cc2ccc(O)cc2)NC(=O)[C@@H]2CCCN2C(=O)[C@H](Cc2ccc3ccccc3c2)NC(=O)[C@@H]1CCCNC(=N)N | inhibition [1]: inactive |
| < 4.52 | – | CN1C(=O)[C@H](CC(N)=O)NC(=O)[C@@H](Cc2ccc(O)cc2)NC(=O)[C@@H]2CCCN2C(=O)[C@H](Cc2ccc3ccccc3c2)NC(=O)[C@@H]1CCCNC(=N)N | inhibition [1]: inactive |
| < 4.52 | 6.07 | CN1C(=O)[C@H](CCCNC(=N)N)NC(=O)[C@@H](Cc2ccc(O)cc2)NC(=O)[C@@H]2CCCN2C(=O)[C@H](Cc2ccc3ccccc3c2)NC(=O)[C@@H]1CCCNC(=N)N | pEC50 [3]: 5.66; EC50 [3]: 2.51 µM; pEC50 [5]: 7.04; pEC50 [6]: 6.57; EC50 ([6]; read-out: pEC50 (converted)): 0.316 µM; pEC50 [7]: 6.44 |
| < 4.52 | – | CN1C(=O)[C@H](CCCNC(=N)N)NC(=O)[C@@H](Cc2ccc(O)cc2)NC(=O)[C@@H]2CCCN2C(=O)[C@H](Cc2ccc3ccccc3c2)NC(=O)[C@@H]1CCC(=O)O | inhibition [1]: inactive |
| < 4.52 | – | CN1C(=O)[C@H](CCCNC(=N)N)NC(=O)[C@@H](Cc2ccc(O)cc2)NC(=O)[C@@H]2CCCN2C(=O)[C@H](Cc2ccc3ccccc3c2)NC(=O)[C@@H]1CC(=O)O | inhibition [1]: inactive |
| 4.77 | 6.77 | CN1C(=O)[C@H](CCCNC(=N)N)NC(=O)[C@@H](Cc2ccc(O)cc2)NC(=O)[C@H](Cc2cccc3ccccc23)N(C)C(=O)[C@H](Cc2ccc3ccccc3c2)NC(=O)[C@@H]1CCCNC(N)=O | pEC50 [3]: 6.96; EC50 [3]: 0.126 µM; pEC50 [5]: 6.31; pEC50 [6]: 5.72; pEC50 [7]: 5.26; EC50 ([7]; read-out: pEC50 (converted)): 6.31 µM |
| < 4.52 | 4.89 | CN1C(=O)[C@H](CCCNC(=N)N)NC(=O)[C@@H](Cc2ccc(O)cc2)NC(=O)[C@@H]2CCCN2C(=O)[C@H](Cc2ccc3ccccc3c2)NC(=O)[C@@H]1CCCNC(N)=O | – |
| < 4.52 | 5.30 | CN1C(=O)[C@H](CCCNC(=N)N)NC(=O)[C@@H](CCc2ccccc2)NC(=O)[C@@H]2CCCN2C(=O)[C@H](Cc2ccc3ccccc3c2)NC(=O)[C@@H]1CCCNC(N)=O | – |
| < 4.52 | 5.44 | CN1C(=O)[C@H](CCCNC(N)=O)NC(=O)[C@@H](Cc2ccc(O)cc2)NC(=O)[C@@H]2CCCN2C(=O)[C@H](Cc2ccc3ccccc3c2)NC(=O)[C@@H]1CCCNC(=N)N | – |
| 5.00 | 6.28 | CN1C(=O)[C@H](CCCNC(=N)N)NC(=O)[C@@H](Cc2ccc(O)cc2)NC(=O)[C@H](Cc2c[nH]c3ccccc23)N(C)C(=O)[C@H](Cc2ccc3ccccc3c2)NC(=O)[C@@H]1CCCNC(N)=O | – |
